{"source": "patent US10183938B2", "about": "“Geminal substituted quinuclidine amide compounds as agonists of α-7 nicotonic acetylcholine receptors” (AXOVANT SCIENCES GMBH, priority 2014, dated 2019)", "biological_target": "human α7 nAChRs transiently expressed in Xenopus laevis oocytes (Homo sapiens (Human), UniProt P36544)", "sequence (P36544 23-502 limits assumed)": "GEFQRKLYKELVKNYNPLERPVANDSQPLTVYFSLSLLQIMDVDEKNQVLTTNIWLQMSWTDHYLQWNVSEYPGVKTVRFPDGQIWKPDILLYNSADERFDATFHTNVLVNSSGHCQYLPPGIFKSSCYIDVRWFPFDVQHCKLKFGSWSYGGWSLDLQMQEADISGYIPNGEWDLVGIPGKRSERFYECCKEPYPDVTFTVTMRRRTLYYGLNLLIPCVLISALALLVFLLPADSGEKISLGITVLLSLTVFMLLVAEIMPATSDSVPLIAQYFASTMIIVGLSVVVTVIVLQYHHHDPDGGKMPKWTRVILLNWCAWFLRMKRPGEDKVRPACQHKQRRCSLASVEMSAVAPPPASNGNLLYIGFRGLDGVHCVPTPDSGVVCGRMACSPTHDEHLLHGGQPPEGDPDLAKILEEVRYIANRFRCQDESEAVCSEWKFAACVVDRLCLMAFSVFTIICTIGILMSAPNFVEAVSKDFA", "test": "Oocyte electrophysiology screen (TEVC)", "type": "cell-based", "conditions": "0.01 mM test compound, peak current relative to 0.2 mM ACh", "how_it_was_run": "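Peak inward current from 0.01 mM compound, applied 30 s, is expressed relative to a 5 s 0.2 mM ACh reference response, in triplicate. Recordings used two-electrode voltage clamp at −80 mV in Xenopus oocytes with 90 s OR2 washes.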", "note": "Structures can show the parent of a compound that is named as a salt."}
{"smiles": "CC1(C)[C@H](NC(=O)c2cc3cccc(C#N)c3s2)C2CCN1CC2", "note": "[(R)-115, (R)-7-cyano-N-(2,2-dimethylquinuclidin-3-yl)benzo[b]thiophene-2-carboxamide hydrochloride]", "values": [{"measurement": "% ACh @ 10 μM Oocyte", "value": 215, "unit": "% ACh"}]}
{"smiles": "Nc1ncc2cc(C(=O)N[C@@H]3C4CCN(CC4)C34CC4)sc2n1", "note": "[(R)-149, (R)-2-amino-N-(1′-azaspiro[cyclopropane-1,2′-bicyclo[2.2.2]octan]-3′-yl) thieno[2,3-d]pyrimidine-6-carboxamide hydrochloride]", "values": [{"measurement": "% ACh @ 10 μM Oocyte", "value": 195, "unit": "% ACh"}]}
{"smiles": "O=C(N[C@@H]1C2CCN(CC2)C12CC2)c1cc2ccc(F)c(C(F)(F)F)c2s1", "note": "[(R)-153, (R)-6-fluoro-N-(1′-azaspiro[cyclopropane-1,2′-bicyclo[2.2.2]octan]-3′-yl)-7-(trifluoromethyl)benzo[b]thiophene-2-carboxamide hydrochloride]", "values": [{"measurement": "% ACh @ 10 μM Oocyte", "value": 114, "unit": "% ACh"}]}
{"smiles": "O=C(N[C@@H]1C2CCN(CC2)C12CC2)c1cc2cccc(Cl)c2o1", "note": "[(R)-164, (R)-7-chloro-N-(1′-azaspiro[cyclopropane-1,2′-bicyclo[2.2.2]octan]-3′-yl)benzofuran-2-carboxamide hydrochloride]", "values": [{"measurement": "% ACh @ 10 μM Oocyte", "value": 266, "unit": "% ACh"}]}
{"smiles": "Cl.Cn1cnc2ccc(C(=O)N[C@@H]3C4CCN(CC4)C3(C)C)cc21", "note": "[(R)-206, (R)-N-(2,2-dimethylquinuclidin-3-yl)-1-methyl-1H-benzo[d]imidazole-6-carboxamide hydrochloride]", "values": [{"measurement": "% ACh @ 10 μM Oocyte", "value": 0, "unit": "% ACh"}]}
{"smiles": "CC1(C)[C@H](NC(=O)c2cc3ccc(-n4ccnn4)cc3s2)C2CCN1CC2.Cl", "note": "[(R)-208, (R)-N-(2,2-dimethylquinuclidin-3-yl)-6-(1H-1,2,3-triazol-1-yl)benzo[b]thiophene-2-carboxamide hydrochloride]", "values": [{"measurement": "% ACh @ 10 μM Oocyte", "value": 0, "unit": "% ACh"}]}
{"smiles": "CC1(C)[C@H](NC(=O)c2cc3ccc(F)c(C(F)(F)F)c3s2)C2CCN1CC2.Cl", "note": "[(R)-211, (R)-N-(2,2-dimethylquinuclidin-3-yl)-6-fluoro-7-(trifluoromethyl)benzo[b]thiophene-2-carboxamide hydrochloride]", "values": [{"measurement": "% ACh @ 10 μM Oocyte", "value": 100, "unit": "% ACh"}]}
{"smiles": "CC1(C)[C@H](NC(=O)c2cc3ccc(C4CC4)c(F)c3s2)C2CCN1CC2.Cl", "note": "[(R)-213, (R)-6-cyclopropyl-N-(2,2-dimethylquinuclidin-3-yl)-7-fluorobenzo[b]thiophene-2-carboxamide hydrochloride]", "values": [{"measurement": "% ACh @ 10 μM Oocyte", "value": 60, "unit": "% ACh"}]}
{"smiles": "CC1(C)[C@H](NC(=O)c2ccc3c(c2)OCCO3)C2CCN1CC2.Cl", "note": "[(R)-215, (R)-N-(2,2-dimethylquinuclidin-3-yl)-2,3-dihydrobenzo[b][1,4]dioxine-6-carboxamide hydrochloride]", "values": [{"measurement": "% ACh @ 10 μM Oocyte", "value": 86, "unit": "% ACh"}]}
{"smiles": "CC1(C)[C@H](NC(=O)c2cc3ccc(Cl)cc3o2)C2CCN1CC2.Cl", "note": "[(R)-216, (R)-6-chloro-N-(2,2-dimethylquinuclidin-3-yl)benzofuran-2-carboxamide hydrochloride]", "values": [{"measurement": "% ACh @ 10 μM Oocyte", "value": 184, "unit": "% ACh"}]}
{"smiles": "Cl.Cn1c(C(=O)N[C@@H]2C3CCN(CC3)C2(C)C)cc2ccccc21", "note": "[(R)-221, (R)-N-(2,2-dimethylquinuclidin-3-yl)-1-methyl-1H-indole-2-carboxamide hydrochloride]", "values": [{"measurement": "% ACh @ 10 μM Oocyte", "value": 188, "unit": "% ACh"}]}
{"smiles": "Cl.O=C(N[C@@H]1C2CCN(CC2)C12CC2)c1cc2ccc(OC(F)(F)F)cc2s1", "note": "[(R)-248, (R)-N-(1′-azaspiro[cyclopropane-1,2′-bicyclo[2.2.2]octan]-3′-yl)-6-(trifluoromethoxy)benzo[b]thiophene-2-carboxamide hydrochloride]", "values": [{"measurement": "% ACh @ 10 μM Oocyte", "value": 1, "unit": "% ACh"}]}
{"smiles": "Cl.Cn1c(C(=O)N[C@@H]2C3CCN(CC3)C23CC3)cc2ccccc21", "note": "[(R)-254, (R)-1-methyl-N-(1′-azaspiro[cyclopropane-1,2′-bicyclo[2.2.2]octan]-3′-yl)-1H-indole-2-carboxamide hydrochloride]", "values": [{"measurement": "% ACh @ 10 μM Oocyte", "value": 447, "unit": "% ACh"}]}
{"smiles": "CC1(C)[C@@H](NC(=O)c2cc3cccc(Cl)c3s2)C2CCN1CC2", "note": "[(S)-3, (S)-7-chloro-N-(2,2-dimethylquinuclidin-3-yl)benzo[b]thiophene-2-carboxamide hydrochloride]", "values": [{"measurement": "% ACh @ 10 μM Oocyte", "value": 22, "unit": "% ACh"}]}
{"smiles": "CC1(C)[C@@H](NC(=O)c2cc3cccc(F)c3s2)C2CCN1CC2", "note": "[(S)-4, (S)—N-(2,2-dimethylquinuclidin-3-yl)-7-fluoro-benzo[b]thiophene-2-carboxamide hydrochloride]", "values": [{"measurement": "% ACh @ 10 μM Oocyte", "value": 17, "unit": "% ACh"}]}
{"smiles": "CC1(C)[C@@H](NC(=O)c2ccc3ccsc3c2)C2CCN1CC2", "note": "[(S)-5, (S)—N-(2,2-dimethylquinuclidin-3-yl)benzo[b]thiophene-6-carboxamide hydrochloride]", "values": [{"measurement": "% ACh @ 10 μM Oocyte", "value": 9, "unit": "% ACh"}]}
{"smiles": "CC1(C)[C@@H](NC(=O)c2ccc3occc3c2)C2CCN1CC2", "note": "[(S)-6, (S)—N-(2,2-dimethylquinuclidin-3-yl)benzofuran-5-carboxamide hydrochloride]", "values": [{"measurement": "% ACh @ 10 μM Oocyte", "value": 2, "unit": "% ACh"}]}
{"smiles": "CC1(C)[C@@H](NC(=O)c2cc3cccc(C(F)(F)F)c3s2)C2CCN1CC2", "note": "[(S)-7, (S)—N-(2,2-dimethylquinuclidin-3-yl)-7-(trifluoromethyl)benzo[b]thiophene-2-carboxamide hydrochloride]", "values": [{"measurement": "% ACh @ 10 μM Oocyte", "value": 2, "unit": "% ACh"}]}
{"smiles": "CC1(C)[C@@H](NC(=O)c2cc3ccc(F)cc3s2)C2CCN1CC2", "note": "[(S)-8, (S)—N-(2,2-dimethylquinuclidin-3-yl)-6-fluorobenzo[b]thiophene-2-carboxamide hydrochloride]", "values": [{"measurement": "% ACh @ 10 μM Oocyte", "value": 1, "unit": "% ACh"}]}
{"smiles": "CC1(C)[C@@H](NC(=O)c2cc3ccc(C#N)cc3s2)C2CCN1CC2", "note": "[(S)-9, (S)-6-cyano-N-(2,2-dimethylquinuclidin-3-yl)benzo[b]thiophene-2-carboxamide hydrochloride]", "values": [{"measurement": "% ACh @ 10 μM Oocyte", "value": 1, "unit": "% ACh"}]}
{"smiles": "CC1(C)[C@@H](NC(=O)c2cc3ccc(C(F)(F)F)cc3s2)C2CCN1CC2", "note": "[(S)-10, (S)—N-(2,2-dimethylquinuclidin-3-yl)-6-(trifluoromethyl)benzo[b]thiophene-2-carboxamide hydrochloride]", "values": [{"measurement": "% ACh @ 10 μM Oocyte", "value": 1, "unit": "% ACh"}]}
{"smiles": "CC1(C)[C@@H](NC(=O)c2cc3cc(F)ccc3s2)C2CCN1CC2", "note": "[(S)-11, (S)—N-(2,2-dimethylquinuclidin-3-yl)-5-fluorobenzo[b]thiophene-2-carboxamide hydrochloride]", "values": [{"measurement": "% ACh @ 10 μM Oocyte", "value": 9, "unit": "% ACh"}]}
{"smiles": "CC1(C)[C@@H](NC(=O)c2cc3ccc(Cl)cc3s2)C2CCN1CC2", "note": "[(S)-12, (S)-6-chloro-N-(2,2-dimethylquinuclidin-3-yl)benzo[b]thiophene-2-carboxamide hydrochloride]", "values": [{"measurement": "% ACh @ 10 μM Oocyte", "value": 3, "unit": "% ACh"}]}
{"smiles": "CC1(C)[C@@H](NC(=O)c2cc3cc(Cl)ccc3s2)C2CCN1CC2", "note": "[(S)-13, (S)-5-chloro-N-(2,2-dimethylquinuclidin-3-yl)benzo[b]thiophene-2-carboxamide hydrochloride]", "values": [{"measurement": "% ACh @ 10 μM Oocyte", "value": 3, "unit": "% ACh"}]}
{"smiles": "CC1(C)[C@@H](NC(=O)c2cc3cc(Cl)c(Cl)cc3s2)C2CCN1CC2", "note": "[(S)-14, (S)-5,6-dichloro-N-(2,2-dimethylquinuclidin-3-yl)benzo[b]thiophene-2-carboxamide hydrochloride]", "values": [{"measurement": "% ACh @ 10 μM Oocyte", "value": 3, "unit": "% ACh"}]}
